ChEMBL document CHEMBL1759844, “Design, synthesis and antimycobacterial activity of cinnamide derivatives: a molecular hybridization approach” (Bioorg Med Chem Lett, 2011)

Legend:
[1] = tested on: Mycobacterium tuberculosis; assay: Antimicrobial activity against Mycobacterium tuberculosis H37Rv after 48 hrs by resazurin microplate broth microdilution method; type: functional
[2] = Cytotoxicity against african green monkey Vero cells after 72 hrs by MTT assay; type: cell-based; settings: chlorocebus sabaeus
[3] = Selectivity index, ratio of CC50 for african green monkey Vero cells to MIC for Mycobacterium tuberculosis H37Rv; type: functional
[4] = tested on: Mycobacterium tuberculosis; assay: Antimicrobial activity against Mycobacterium tuberculosis H37Rv after 48 hrs by resazurin microplate broth microdilution method in presence of rifampicin; type: functional

Row | SMILES | MIC [1] | CC50 at 72 h [2] [µM] | Selectivity Index [3] | fractional inhibitory concentration index (FICI) [4]
1 | O=C(/C=C/c1ccccc1)N1CCCN(C(=O)/C=C/c2ccccc2)CC1 | 17.3 µM | 708 | 41 | –
2 | O=C(/C=C/c1ccccc1)NCCNC(=O)/C=C/c1ccccc1 | 5.1 µM | 618 | 121 | 0.31
3 | O=C(/C=C/c1ccccc1)N1CCN(C(=O)/C=C/c2ccccc2)CC1 | 9 µM | 855 | 95 | –
4 | O=C(/C=C/c1ccccc1)NCCN1CCN(C(=O)/C=C/c2ccccc2)CC1 | 16.7 µM | 480 | 29 | –
5 | Cc1ccc(/C=C/C(=O)NCCNC(=O)/C=C/c2ccc(C)cc2)cc1 | 144 µM | 565 | 4 | –
6 | COc1ccc(/C=C/C(=O)NCCNC(=O)/C=C/c2ccc(OC)cc2)cc1 | 132 µM | 680 | 5 | –
7 | O=C(/C=C/c1ccc(Cl)cc1)NCCNC(=O)/C=C/c1ccc(Cl)cc1 | 129 µM | 788 | 6 | –
8 | O=C(/C=C/c1ccccc1Cl)NCCNC(=O)/C=C/c1ccccc1Cl | 64.4 µM | 725 | 11 | –
9 | O=C(/C=C/c1cccc([N+](=O)[O-])c1)NCCNC(=O)/C=C/c1cccc([N+](=O)[O-])c1 | 68.5 µM | 615 | 9 | –
10 | COc1ccccc1/C=C/C(=O)NCCNC(=O)/C=C/c1ccccc1OC | 65.8 µM | 695 | 11 | –
11 | O=C(/C=C/c1c(Cl)cccc1Cl)NCCNC(=O)/C=C/c1c(Cl)cccc1Cl | 54.8 µM | 653 | 12 | –
12 | O=C(/C=C/c1ccco1)NCCNC(=O)/C=C/c1ccco1 | 10.8 µM | 683 | 63 | –
13 | O=C(/C=C/c1cccs1)NCCNC(=O)/C=C/c1cccs1 | 9.41 µM | 692 | 74 | –
14 | O=C(/C=C/c1ccc(Cl)c(Cl)c1)NCCNC(=O)/C=C/c1ccc(Cl)c(Cl)c1 | 54.8 µM | 653 | 12 | –
15 | CC[C@@H](CO)NCCN[C@@H](CC)CO [ETHAMBUTOL] | 15.3 µM | 1470 | 96 | –
16 | CO[C@H]1/C=C/O[C@@]2(C)Oc3c(C)c(O)c4c(O)c(c(/C=N/N5CCN(C)CC5)c(O)c4c3C2=O)NC(=O)/C(C)=C\C=C\[C@H](C)[C@H](O)[C@@H](C)[C@@H](O)[C@@H](C)[C@H](OC(C)=O)[C@@H]1C [RIFAMPIN] | 0.125 µg/mL | – | – | –
